This is an account of results in ChEMBL document CHEMBL3232937.

Series [1] concerns the target T1, Casein kinase I isoform delta (Homo sapiens, UniProt P48730). The experiment in a line: Inhibition of human recombinant CK-1delta using casein as substrate after 60 mins by Kinase-Glo assay.
Target sequence in this assay (P48730 whole entry, canonical isoform): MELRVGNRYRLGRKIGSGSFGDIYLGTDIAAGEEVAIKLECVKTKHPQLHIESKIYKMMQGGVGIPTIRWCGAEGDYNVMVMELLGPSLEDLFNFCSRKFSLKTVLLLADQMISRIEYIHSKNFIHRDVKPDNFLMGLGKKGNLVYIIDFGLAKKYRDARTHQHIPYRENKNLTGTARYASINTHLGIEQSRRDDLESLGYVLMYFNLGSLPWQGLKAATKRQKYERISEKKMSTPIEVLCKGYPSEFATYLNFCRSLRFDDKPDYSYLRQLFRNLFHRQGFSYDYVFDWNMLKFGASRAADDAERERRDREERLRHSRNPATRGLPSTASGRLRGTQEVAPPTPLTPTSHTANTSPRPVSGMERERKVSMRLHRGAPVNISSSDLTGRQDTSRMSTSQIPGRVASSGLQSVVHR
Series [2] has as its target T1, Casein kinase I isoform delta. Conditions: at 10 µM.
Target sequence in this assay (P48730 whole entry, looked up, canonical isoform): as the sequence (P48730 whole entry, canonical isoform) above
Description: Inhibition of human recombinant CK-1delta using casein as substrate at 10 uM after 60 mins by Kinase-Glo assay relative to control
For series [3] the following is noted: pampa.
Description: Permeability of the compound by PAMPA
In series [4] the target is T1, Casein kinase I isoform delta. The experiment in a line: Competitive inhibition of human recombinant CK-1delta using casein as substrate at 0.25 to 0.5 uM by Lineweaver-Burk plot analysis in presence of ATP.
Target sequence in this assay (P48730 whole entry, looked up, canonical isoform): as the sequence (P48730 whole entry, canonical isoform) above

Calls of active or inactive are those of the source. No cut-off for these calls is given here. Some results are limits rather than exact numbers.

In general, IC50 refers to the midpoint of a concentration-inhibition curve. `CCOC(=O)c1sc(NC(=O)CNC(=O)CC(c2ccccc2)c2ccccc2)nc1C`: the IC50 in series [1] amounted to 3.79 µM.

One may read the inhibition as how much of the control response was suppressed. In series [2], `O=C(Cc1cccc(C(F)(F)F)c1)Nc1nc2ccc(C(F)(F)F)cc2s1` yielded an inhibition greater than 60%. In series [3], this compound came in with a permeability of 6.4 ×10⁻⁶ cm/s.

Take `CCOC(=O)c1sc(NC(=O)CNC(=O)Cc2ccccc2)nc1C`: in series [1], the IC50 was determined as 10.1 µM.

In the case of `O=C(Cc1ccccc1Cl)Nc1nc2ccc(C(F)(F)F)cc2s1`, the inhibition in series [2] is greater than 60%.

As for `COc1ccc(NC(=O)Nc2nc3ccc(C(F)(F)F)cc3s2)cc1`, the inhibition in series [2] is greater than 60%.

Regarding `CS(=O)(=O)c1ccc2nc(NC(=O)Cc3cccs3)sc2c1`, the concentration for half-maximal inhibition (IC50) in series [1] amounted to 2.69 µM.

`COc1cc(OC)c(C=C2C(=O)Nc3ccccc32)c(OC)c1`: the inhibition entry in series [4] is “Active”.

In series [2], `COc1ccccc1CC(=O)Nc1nc2ccc(C(F)(F)F)cc2s1` displayed an inhibition greater than 60%. The same compound yielded a permeability in series [3] of 11.2 ×10⁻⁶ cm/s.

In series [2], `COc1ccccc1CC(=O)Nc1nc2ccc(Cl)cc2s1` displayed an inhibition greater than 60%.

In series [2], `O=C(Cc1ccc(Cl)cc1)Nc1nc2ccc(C(F)(F)F)cc2s1` had an inhibition greater than 60%. In series [3], this compound came in with a permeability of 9.6 ×10⁻⁶ cm/s.

The compound `CCOc1ccc2nc(NC(=O)Cc3ccccc3OC)sc2c1` had an inhibition in series [2] greater than 60%.

`COc1ccccc1CC(=O)Nc1nc2ccc(OC(F)(F)F)cc2s1` displayed an inhibition in series [2] greater than 60%.

Take `CCOC(=O)c1sc(NC(=O)COCc2ccccc2)nc1C`: the 50% inhibitory concentration (IC50) in series [1] is 7.38 µM. This compound also registered an inhibition in series [2] greater than 60%.

`O=C(Cc1ccc(Cl)cc1)Nc1nc2ccccc2o1`: the IC50 in series [1] was determined as 4.11 µM. Also, the inhibition in series [2] is greater than 60%.

As for `COc1ccc2nc(NC(=O)Cc3ccc(Cl)c(Cl)c3)sc2c1`, the inhibition in series [2] was greater than 60%.

In series [3], `CN(C)CCCN1c2ccccc2Sc2ccccc21` [PROMAZINE] yielded a permeability of 12.7 ×10⁻⁶ cm/s.

In series [2], `COc1ccc2nc(NC(=O)Cc3ccc(Cl)cc3)sc2c1` gave an inhibition greater than 60%.

For the compound `CC(=O)c1sc(NC(=O)Cc2cccc(Cl)c2)nc1C`, in series [1], the IC50 is 1.12 µM. In series [2], this compound gave an inhibition greater than 60%.

For `CCOC(=O)c1sc(NC(=O)CNC(=O)c2ccc(N3CCOCC3)cc2)nc1C`, the IC50 in series [1] came out at 9.31 µM.

The compound `O=C(Cc1cccc(Cl)c1)Nc1nc2ccc(OC(F)(F)F)cc2s1` came in with an inhibition in series [2] greater than 60%.

For the compound `O=C(CC(c1ccccc1)c1ccccc1)Nc1nc2ccccc2s1`, the inhibition in series [2] was greater than 60%.

In turn, `O=C(CCc1cccc(Cl)c1)Nc1nc2ccccc2s1` came in with an inhibition in series [2] greater than 60%.

In series [2], `COc1ccc(CC(=O)Nc2nc3ccc(OC)cc3s2)cc1` returned an inhibition greater than 60%.

In series [2], `CCOc1ccc2nc(NC(=O)C(c3ccccc3)c3ccccc3)sc2c1` registered an inhibition greater than 60%.

For the compound `CCOc1ccc2nc(NC(=O)Cc3cccc(OC)c3)sc2c1`, in series [2], the inhibition was greater than 60%.

On to `CCOc1ccc2nc(NC(=O)Cc3ccc(Cl)c(Cl)c3)sc2c1`, for which, in series [2], the inhibition was greater than 60%.

On to `COc1ccc2nc(NC(=O)Cc3ccccc3OC)sc2c1`, for which the inhibition in series [2] is greater than 60%.

Take `O=C(Cc1ccccc1)Nc1nc2ccc(C(F)(F)F)cc2s1`: in series [2], the inhibition is greater than 60%. The compound further registered a permeability in series [3] of 4.4 ×10⁻⁶ cm/s.

`CCOc1ccc2nc(NC(=O)Cc3ccc(OC)cc3)sc2c1`: the inhibition in series [2] is greater than 60%.

`CCOc1ccc2nc(NC(=O)Cc3cc(OC)c(OC)c(OC)c3)sc2c1` had an inhibition in series [2] greater than 60%.

`O=C(Nc1nc2ccccc2s1)C(c1ccccc1)c1ccccc1` returned an inhibition in series [2] greater than 60%.

Consider `COc1cc(CC(=O)Nc2nc3ccc(C(F)(F)F)cc3s2)cc(OC)c1OC`, for which, in series [2], the inhibition is greater than 60%. In series [3], this compound yielded a permeability of 7.2 ×10⁻⁶ cm/s.

On to `CCOC(=O)c1sc(NC(=O)CNC(=O)c2ccccc2)nc1C`, for which the IC50 in series [1] turned out to be 7.45 µM.

In series [3], `CNCCCN1c2ccccc2CCc2ccccc21` [DESIPRAMINE] had a permeability of 14.6 ×10⁻⁶ cm/s.

Compound `CCOc1ccc2nc(NC(=O)Cc3ccccc3Cl)sc2c1` returned an inhibition in series [2] greater than 60%.

In series [2], `COc1ccccc1CC(=O)Nc1nc2ccc(F)cc2s1` registered an inhibition greater than 60%.

On to `Cc1ccc2nc(NC(=O)Cc3cccc(Cl)c3)sc2c1`, for which the inhibition in series [2] was greater than 60%. The same compound displayed a permeability in series [3] of 5.6 ×10⁻⁶ cm/s.

Turning to `COc1ccc2nc(NC(=O)Cc3cc(OC)c(OC)c(OC)c3)sc2c1`, in series [1], the IC50 is 1.12 µM. In series [2], the inhibition was greater than 60%.

As for `O=C(Cc1cccc(Cl)c1)Nc1nncs1`, the inhibition in series [2] was 20%.

Consider `COc1ccc2nc(NC(=O)Cc3ccccc3Cl)sc2c1`, for which the inhibition in series [2] is greater than 60%.

In series [2], `COc1cccc(CC(=O)Nc2nc3ccc(C(F)(F)F)cc3s2)c1` gave an inhibition greater than 60%. The permeability in series [3] stood at 11.2 ×10⁻⁶ cm/s.

Turning to `O=C(Cc1ccc(Cl)c(Cl)c1)Nc1nc2ccc(C(F)(F)F)cc2s1`, the inhibition in series [2] was greater than 60%. Further, the permeability in series [3] was found to be 1.4 ×10⁻⁶ cm/s.

Compound `O=C(Cc1ccc(Cl)c(Cl)c1)Nc1nc2ccc(OC(F)(F)F)cc2s1` registered an inhibition in series [2] greater than 60%.

Turning to `COc1ccc2nc(NC(=O)Cc3cccc(Cl)c3)sc2c1`, in series [2], the inhibition was greater than 60%.

In the case of `O=C(Cc1ccccc1)Nc1nc2ccccc2s1`, the inhibition in series [2] is greater than 60%.

In series [2], `COc1ccccc1CC(=O)Nc1nc2ccc(Br)cc2s1` had an inhibition greater than 60%.

`COc1ccc(CC(=O)Nc2nc3ccc(C(F)(F)F)cc3s2)cc1` registered an inhibition in series [2] greater than 60%. The compound further returned a permeability in series [3] of 14.6 ×10⁻⁶ cm/s.

In the case of `CCOc1ccc2nc(NC(=O)Cc3ccc(Cl)cc3)sc2c1`, in series [1], the half-inhibitory concentration (IC50) came out at 1.11 µM. Further, the inhibition in series [2] is greater than 60%.

As for `CN1C(C(=O)Nc2ccccn2)=C(O)c2ccccc2S1(=O)=O` [PIROXICAM], in series [3], the permeability amounted to 0.5 ×10⁻⁶ cm/s.

As for `CCOc1ccc2nc(NC(=O)Cc3cccc(Cl)c3)sc2c1`, the inhibition in series [2] is greater than 60%.

The compound `COc1cccc(CC(=O)Nc2nc3ccc(OC)cc3s2)c1` yielded an inhibition in series [2] greater than 60%.

`COc1ccc(OC)c(CC(=O)Nc2nc3ccc(C(F)(F)F)cc3s2)c1`: the inhibition in series [2] was greater than 60%.

In series [2], `O=C(Cc1cccc(Cl)c1)Nc1nc2ccc(C(F)(F)F)cc2s1` came in with an inhibition greater than 60%. The same compound showed a permeability in series [3] of 11.2 ×10⁻⁶ cm/s.

For `COc1ccccc1CC(=O)Nc1nc2ccc(C)cc2s1`, the inhibition in series [2] is greater than 60%.

For `COc1cc(CC(=O)Nc2nc3ccc(OC(F)(F)F)cc3s2)cc(OC)c1OC`, the inhibition in series [2] is greater than 60%. In series [3], this compound had a permeability of 2.6 ×10⁻⁶ cm/s.
